{"source": "patent US20250170027A1", "about": "“COLLAGEN CROSS-LINKER AND USES THEREOF” (The Curators of the University of Missouri, priority 2022, published 2025)", "key": {"L929 cells [1]": {"test_system": "L929 cells", "test": "Effect of direct treatment on cell proliferation (MTS assay)", "format": "cell-based", "settings": "treatment solutions diluted 1:1000, 1:2000, 1:4000 (v/v) in culture medium; FIG. 5", "protocol": "(§1) The cells were seeded onto 24 and 96-well plates at a density of 2×10^4 cells/cm^2 and incubated at 37° C. in 5% CO2 and 95% relative humidity until the monolayer cells spread over the bottom of the wells.\nThe direct treatments were conducted on 96-well plates with replacement of original culture medium with culture medium containing different diluted treatment solutions at ratios of 1:1000, 1:2000 and 1:4000 (v/v) and a control group containing only original culture medium. Cell proliferation was assessed with the MTS assay CellTiter 96 AQueous One Solution Cell Proliferation Assay following protocol guidelines specified by the manufacturer. Absorbance was measured using a multimode microplate reader at 460/30 nm at 2 h after addition of MTS reagent. Statistical analysis was performed using a two-way ANOVA for each used concentration followed by Tukey's post hoc (α=0.05)."}, "L929 cells [2]": {"test_system": "L929 cells", "format": "cell-based", "settings": "dentin disks treated 1 min; 1 or 3 days exposure; FIGS. 6, 7", "protocol": "as §1\nTwenty-four teeth were sectioned obtaining 24-dentin disks (approximately 6-mm in diameter). The dentin disks were superficially etched using 32% phosphoric acid gel for 15 s on each side, rinsed thoroughly and placed in 100 μL of treatment solutions. After 1 min of treatment, the treated dentin disks were rinsed in sterile distilled water for 30 s. Treated dentin disks were immediately placed on a permeable polycarbonate membrane insert (6.5 mm in diameter, 3.0 μm pore size) above of cultured cells and covered with 100 μL of medium. After incubation, cell viability assay was used to stain live cells with calcein-AM and dead cells with ethidium homodimer. To distinguish overlapped cells in cell counting, Hoechst 33342 was used as a cell-permeant nuclear counterstain, following the guidelines specified by the manufacturer. Cells were imaged using a fluorescent High Content Microscope with 20× magnification. Cell counting was performed using ImageJ (NIH Image J1.8.0). The percentage of cell proliferation and dead cells were statistically compared to 1-day control using one-way ANOVA and Dunnett's test (α=0.05)."}, "[3]": {"test_system": "Clostridium histolyticum collagenase", "settings": "after 1 hour incubation at 37° C.; 0.2 U/ml collagenase; EDTA 5 mM; FIG. 3", "experimental": "The direct inactivation of collagenase by TRI was also determined using a collagenase assay kit. Assays were performed in 96-well microplates with 0.2 U/ml Clostridium histolyticum collagenase incubated with the treatment solutions for up to 24 h according to the manufacturer's instructions. The well-known collagenase inhibitor 5 mM EDTA was used as a positive control. A group without any treatment was included as a negative control. The fluorescence of kinetic of inactivation was monitored at 1, 2, 4, 16 and 24 h of incubation at 37° C. in triplicate at 490 nm/520 nm. Fluorescence at the different time points was determined by subtracting background fluorescence. The collagenase activity was expressed in arbitrary fluorescence units. Then, the activity was calculated in percentage of inhibition according to the untreated negative control (presumed 100% collagenase activity) after 4 h of incubation. Statistical analysis was performed by one-way ANOVA and Games Howell's post hoc (α=0.05)."}, "dentin collagen": {"test_system": "dentin collagen", "test": "Biodegradation of dentin collagen by exogenous collagenase (weight loss, HYP release)", "format": "biochemical, human", "settings": "crosslinker 0.6 wt % in EtOH, 60 s or 1 h treatment; 0.1% collagenase 1 h at 37° C.; FIG. 2A", "protocol": "Following the treatment and rinse, the dentin collagen films were dried (48 h under vacuum) and then exposed to 0.1% collagenase (type I, from Clostridium histolyticum, ≥125 U/mg) degradation for 1 h at 37° C. (n=6×10 films per group). The remnant films were dried as previously described and compared the weight percent before and after collagenase digestion for weight loss analysis (WL). The digestion solution was collected and processed to quantify the amount of HYP released. This processing comprised exposure to 5% Ehrlich's reagent, which binds to HYP and produces a colored solution, the color intensity of which is proportional to the concentration of HYP. Colorimetry was performed by measuring the absorbance at 555 nm in a microplate reader, thereby calculating the HYP μg/mg of collagen during digestion. […] All data for weight loss are separately shown after […] for each sample."}, "mammalian collagen": {"test_system": "mammalian collagen", "test": "Application of crosslinkers to mammalian collagen (biostability, general statement)", "settings": "application of any one of the crosslinkers to mammalian collagen"}}, "data": [{"smiles": "O=CCCCC=O", "note": "[GA, glutaraldehyde]", "values": [{"measurement": "cell proliferation (MTS absorbance) compared to the control sample", "setting": "L929 cells [1]", "result": "high cytotoxicity"}, {"measurement": "cytotoxic effect on L929 cells", "setting": "L929 cells [2]", "result": "cytotoxic"}]}, {"smiles": "O=C(O)CN(CCN(CC(=O)O)CC(=O)O)CC(=O)O", "note": "[EDTA, ethylenediaminetetraacetic acid]", "values": [{"measurement": "collagenase inhibition", "setting": "[3]", "result": "some collagenase inhibition"}]}, {"smiles": "O=c1c(O)c(-c2ccc(O)c(O)c2)oc2cc(O)cc(O)c12", "note": "[QC, quercetin]", "values": [{"measurement": "weight % change (weight loss) before and after collagenase digestion", "setting": "dentin collagen", "result": "not faring much better"}]}, {"smiles": "COC(=O)C1=CO[C@@H](O)[C@@H]2C(CO)=CC[C@H]12", "note": "[GEN, genipin]", "values": [{"measurement": "weight % change (weight loss) before and after collagenase digestion", "setting": "dentin collagen", "result": "not faring much better"}]}, {"smiles": "CCOC(=O)c1cc(C(=O)NCCc2ccc(O)c(O)c2)cc(C(=O)NCCc2ccc(O)c(O)c2)c1", "note": "[TRI-3]", "values": [{"measurement": "biostability of mammalian collagen", "setting": "mammalian collagen", "result": "improves the biostability"}]}, {"smiles": "O=C(O)c1cc(C(=O)NCCc2ccc(O)c(O)c2)cc(C(=O)NCCc2ccc(O)c(O)c2)c1", "note": "[TRI-2]", "values": [{"measurement": "biostability of mammalian collagen", "setting": "mammalian collagen", "result": "improves the biostability"}]}, {"smiles": "O=C(NCCc1ccc(O)c(O)c1)c1cc(C(=O)NCCc2ccc(O)c(O)c2)cc(C(=O)NCCc2ccc(O)c(O)c2)c1", "note": "[TRI-1]", "values": [{"measurement": "biostability of mammalian collagen", "setting": "mammalian collagen", "result": "improves the biostability"}]}]}
